Reference: ChEMBL document CHEMBL5154930, “Design, Synthesis, and Biological Evaluations of DOT1L Peptide Mimetics Targeting the Protein-Protein Interactions between DOT1L and MLL-AF9/MLL-ENL” (J Med Chem, 2022)
Activity calls are given as the source filed them. The calls are words filed in the database; no cut-off is given here. Non-standard residues stand in square brackets, D forms with d. Residues, ends and D or L forms follow the SMILES beside them. *: point of attachment. X1 = C[C@H](N*)c1nc2cccc(-c3ccccc3)c2[nH]1; Ala(cPent) = N[C@@H](CC1CCCC1)C(=O)O; Pentanoyl(4-Me) = CC(C)CCC(=O)*; Dap(Me) = CNC[C@H](N)C(=O)O

Tests used:
MOLM-13 [1] = experiment: Down regulation of HOXA5 gene in human MOLM-13 cells by RNA-sequencing analysis; type: functional, cell-based
MOLM-13 [2] = experiment: Inhibition of methylation of H3K79 in human MOLM-13 cells assessed as inhibition of methylation at HOXA1 gene cluster by chromatin immunoprecipitation assay; type: functional, cell-based
MOLM-13 [3] = experiment: Down regulation of RUNX1 gene in human MOLM-13 cells by RNA-sequencing analysis; type: functional, cell-based
KOPN-8 = experiment: cells; conditions: Homo sapiens, KOPN-8, 192 h
Description: Anticancer activity against human KOPN-8 cells harbouring MLL-ENL assessed as inhibition of cell growth treated for 8 days measured by CCK-8 kit method

MOLM-13 [4] = experiment: cells; conditions: Homo sapiens, MOLM-13, 120 h
Description: Anticancer activity against human MOLM-13 cells harbouring MLL-AF9 assessed as inhibition of cell growth treated for 5 days measured by CCK-8 kit method

MOLM-13 [5] = experiment: Down regulation of HOXA3 gene in human MOLM-13 cells by RNA-sequencing analysis; type: functional, cell-based
[6] = Stability in human plasma assessed as compound remaining measured upto 1440 mins by HPLC analysis; type: ADME, cell-free; conditions: read-out: Stability
MOLM-13 [7] = experiment: Induction of apoptosis in human MOLM-13 cells at 0.25 to 1 uM assessed as cleaved Caspase-3 by Annexin V-FITC/PI staining based flow cytometry analysis; type: functional, cell-based; conditions: dose 0.25-1 µM
MOLM-13 [8] = experiment: Down regulation of MCM2 gene in human MOLM-13 cells by RNA-sequencing analysis; type: functional, cell-based
MOLM-13 [9] = experiment: Inhibition of methylation of H3K79 in human MOLM-13 cells assessed as inhibition of methylation at HOXA4 gene cluster by chromatin immunoprecipitation assay; type: functional, cell-based
MOLM-13 [10] = experiment: Inhibition of methylation of H3K79 in human MOLM-13 cells assessed as inhibition of methylation at HOXA3 gene cluster by chromatin immunoprecipitation assay; type: functional, cell-based
MOLM-13 [11] = experiment: Inhibition of methylation of H3K79 in human MOLM-13 cells assessed as inhibition of methylation at […] gene cluster by chromatin immunoprecipitation assay; type: functional, cell-based
MOLM-13 [12] = experiment: cells; conditions: Homo sapiens, MOLM-13, 216 h
Description: Anticancer activity against human MOLM-13 cells harbouring MLL-AF9 assessed as inhibition of cell growth treated for 9 days measured by CCK-8 kit method

MOLM-13 [13] = experiment: Down regulation of CDK6 gene in human MOLM-13 cells by RNA-sequencing analysis; type: functional, cell-based
MOLM-13 [14] = experiment: cells; conditions: Homo sapiens, MOLM-13, 168 h
Description: Anticancer activity against human MOLM-13 cells harbouring MLL-AF9 assessed as inhibition of cell growth treated for 7 days measured by CCK-8 kit method

MOLM-13 [15] = experiment: Down regulation of HOXA9 gene in human MOLM-13 cells by RNA-sequencing analysis; type: functional, cell-based
MOLM-13 [16] = experiment: Down regulation of HOXA10 gene in human MOLM-13 cells by RNA-sequencing analysis; type: functional, cell-based
MOLM-13 [17] = experiment: Down regulation of HOXA11 gene in human MOLM-13 cells by RNA-sequencing analysis; type: functional, cell-based
Protein AF-9 = target: T1, Protein AF-9 (Homo sapiens, UniProt P42568); experiment: Binding affinity to MBP-tagged human recombinant AF9 (487 to 568 residues) incubated for 40 mins by measuring fluorescence polarization by microplate reader method
T1 sequence (P42568 whole entry): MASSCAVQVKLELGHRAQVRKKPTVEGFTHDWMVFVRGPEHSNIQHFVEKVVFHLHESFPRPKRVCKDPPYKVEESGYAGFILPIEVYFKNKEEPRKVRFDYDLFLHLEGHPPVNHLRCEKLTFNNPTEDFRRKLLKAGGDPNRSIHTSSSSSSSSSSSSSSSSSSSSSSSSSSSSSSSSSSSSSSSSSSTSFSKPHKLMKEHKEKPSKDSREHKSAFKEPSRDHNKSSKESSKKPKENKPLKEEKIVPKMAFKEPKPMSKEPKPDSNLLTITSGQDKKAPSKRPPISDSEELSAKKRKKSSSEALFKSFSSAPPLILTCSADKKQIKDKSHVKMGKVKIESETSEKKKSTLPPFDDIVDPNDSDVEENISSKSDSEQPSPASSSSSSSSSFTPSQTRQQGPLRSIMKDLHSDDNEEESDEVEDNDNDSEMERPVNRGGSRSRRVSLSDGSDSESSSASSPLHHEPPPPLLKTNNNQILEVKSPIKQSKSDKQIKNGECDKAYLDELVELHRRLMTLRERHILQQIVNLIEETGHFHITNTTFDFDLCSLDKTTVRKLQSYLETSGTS

MOLM-13 [18] = experiment: Down regulation of ARID2 gene in human MOLM-13 cells by RNA-sequencing analysis; type: functional, cell-based
[19] = target: T2, Protein AF-9 (Homo sapiens) (UniProt P42568); experiment: Binding affinity to AF9 in human MOLM-13 cells assessed as thermal stabilization of protein at 55 degree Celsius for 12 hrs by CETSA; type: cell-based; conditions: dose <= 4.0 µM, DDE = dose-dependent effect
T2 sequence (whole entry): T1 sequence (P42568 whole entry)

MOLM-13 [20] = experiment: Down regulation of GBE1 gene in human MOLM-13 cells by RNA-sequencing analysis; type: functional, cell-based
[21] = target: T2, Protein AF-9 (Homo sapiens); experiment: Binding affinity to AF9 in human MOLM-13 cells assessed as thermal stabilization of protein at 60 degree Celsius at 1 uM for 12 hrs by CETSA; type: cell-based
MOLM-13 [22] = experiment: Down regulation of MEF2C gene in human MOLM-13 cells by RNA-sequencing analysis; type: functional, cell-based
MOLM-13 [23] = experiment: Down regulation of HPGD gene in human MOLM-13 cells by RNA-sequencing analysis; type: functional, cell-based
MOLM-13 [24] = experiment: Down regulation of MEIS1 gene in human MOLM-13 cells by RNA-sequencing analysis; type: functional, cell-based
MOLM-13 [25] = experiment: cells; conditions: Homo sapiens, MOLM-13, 144 h
Description: Anticancer activity against human MOLM-13 cells harbouring MLL-AF9 assessed as inhibition of cell growth treated for 6 days measured by CCK-8 kit method

MOLM-13 [26] = experiment: Inhibition of methylation of H3K79 in human MOLM-13 cells assessed as inhibition of methylation at HOXA-AS2 gene cluster by chromatin immunoprecipitation assay; type: functional, cell-based
MOLM-13 [27] = experiment: Inhibition of methylation of H3K79 in human MOLM-13 cells assessed as inhibition of methylation at HOXA2 gene cluster by chromatin immunoprecipitation assay; type: functional, cell-based
MOLM-13 [28] = experiment: Down regulation of SSBP2 gene in human MOLM-13 cells by RNA-sequencing analysis; type: functional, cell-based
MOLM-13 [29] = experiment: Induction of apoptosis in human MOLM-13 cells at 0.25 to 1 uM by Annexin V-FITC/PI staining based flow cytometry analysis; type: functional, cell-based; conditions: dose 0.25-1 µM, time 5-9 day, TDE = time-dependent effect
MOLM-13 [30] = experiment: cells; conditions: Homo sapiens, MOLM-13, 96 h
Description: Anticancer activity against human MOLM-13 cells harbouring MLL-AF9 assessed as inhibition of cell growth treated for 4 days measured by CCK-8 kit method

MOLM-13 [31] = experiment: Inhibition of methylation of H3K79 in human MOLM-13 cells assessed as inhibition of methylation at HOXA11 gene cluster by chromatin immunoprecipitation assay; type: functional, cell-based
MOLM-13 [32] = experiment: cells; conditions: Homo sapiens, MOLM-13, 192 h
Description: Anticancer activity against human MOLM-13 cells harbouring MLL-AF9 assessed as inhibition of cell growth treated for 8 days measured by CCK-8 kit method

MOLM-13 [33] = experiment: Induction of apoptosis in human MOLM-13 cells at 0.25 to 1 uM assessed as cleaved PARP by Annexin V-FITC/PI staining based flow cytometry analysis; type: functional, cell-based; conditions: dose 0.25-1 µM
MOLM-13 [34] = experiment: Down regulation of SKP2 gene in human MOLM-13 cells by RNA-sequencing analysis; type: functional, cell-based
MOLM-13 [35] = experiment: Inhibition of methylation of H3K79 in human MOLM-13 cells assessed as inhibition of methylation at HOXA10 gene cluster by chromatin immunoprecipitation assay; type: functional, cell-based

In the case of `CNC[C@H](NC(=O)[C@@H](NC(=O)[C@@H]1CCCN1C(=O)CCC(C)C)C(C)C)C(=O)N[C@@H](CC1CCCC1)C(=O)N[C@@H](C)c1nc2cccc(-c3ccccc3)c2[nH]1` ({Pentanoyl(4-Me)}-PV[Dap(Me)][Ala(cPent)]-X1), the Activity (MOLM-13 [1]) is reported as “Active”, the inhibition (MOLM-13 [2]) is reported as “Active” and the Activity (MOLM-13 [3]) is reported as “Active”. The IC50 (KOPN-8) was 100 nM, the IC50 (MOLM-13 [4]) was 703 nM and the Activity (MOLM-13 [5]) was “Active”. The remaining at 24 h [6] was 81.5%, the Activity (MOLM-13 [7]) was “Active” and the Activity (MOLM-13 [8]) was “Active”. The inhibition (MOLM-13 [9]) was “Active”, the inhibition (MOLM-13 [10]) was “Active” and the inhibition (MOLM-13 [11]) was “Active”. The IC50 (MOLM-13 [12]) was 44 nM, the Activity (MOLM-13 [13]) was “Active” and the IC50 (MOLM-13 [14]) was 167 nM. For the same compound, the Activity (MOLM-13 [15]) was “Active”, the Activity (MOLM-13 [16]) was “Active” and the Activity (MOLM-13 [17]) was “Active”. For the same compound, the Ki (Protein AF-9) was 9 nM, the Activity (MOLM-13 [18]) was “Active” and the Activity [19] was “Dde”. For the same compound, the Activity (MOLM-13 [20]) was “Active”, the Activity [21] was “Active” and the Activity (MOLM-13 [22]) was “Active”. The Activity (MOLM-13 [23]) was “Active”, the Activity (MOLM-13 [24]) was “Active” and the IC50 (MOLM-13 [25]) was 382 nM. For the same compound, the inhibition (MOLM-13 [26]) was “Active”, the inhibition (MOLM-13 [27]) was “Active” and the Activity (MOLM-13 [28]) was “Active”. For the same compound, the Activity (MOLM-13 [29]) was “Tde”, the IC50 (MOLM-13 [30]) was 972 nM and the inhibition (MOLM-13 [31]) was “Active”. The IC50 (MOLM-13 [32]) was 70 nM, the Activity (MOLM-13 [33]) was “Active” and the Activity (MOLM-13 [34]) was “Active”. For the same compound, the inhibition (MOLM-13 [35]) was “Active”.
